Data published in patent US11142515B2, “Pyrazolyl-ureas as kinase inhibitors” (RESPIVERT LIMITED, priority 2014, dated 2021).

Key:
[1] = tested on: d-U937 cells; assay: Cell viability: MTT assay in differentiated U937 cells; type: cell-based, human; conditions: 10 μg/mL
Summary of the method: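 Differentiated U937 cells exposed to compound at a final 10 μg/mL, either 4 h in 5% FCS RPMI1640 or 24 h in 10% FCS RPMI1640. MTT added for 1 h, formazan dissolved in DMSO, absorbance read at 550 nm; % viability loss relative to 0.5% DMSO vehicle, with increases shown as negative values.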

[2] = tested on: ICAM-1 expression in BEAS2B cells; assay: Poly I:C-induced ICAM-1 expression in BEAS2B cells; type: cell-based; conditions: Homo sapiens, BEAS-2B, read-out: PolyIC/ICAM1 IC50 (BEAS2B)
Procedure: Poly I:C was used in these studies as a simple, RNA virus mimic. Poly I:C-Oligofectamine mixture (2% Oligofectamine±1 μg/mL Poly I:C, 25 μL; Life Technologies and Invivogen Ltd., San Diego, Calif., respectively) was transfected into BEAS2B cells (human bronchial epithelial cells, ATCC). Cells were pre-incubated with final concentrations of test compounds for 2 h and the level of ICAM-1 expression on the cell surface was determined by cell-based ELISA. At a time point 18 h after poly I:C transfection, cells were fixed with 4% formaldehyde in PBS (100 μL) and then endogenous peroxidase was quenched by the addition of washing buffer (100 μL, 0.05% Tween in PBS: PBS-Tween) containing 0.1% sodium azide and 1% hydrogen peroxide. Cells were washed with wash-buffer (3×200 μL). After blocking the wells with 5% milk in PBS-Tween (100 μL) for 1 h, the cells were incubated with anti-human ICAM-1 antibody (50 μL; Cell Signaling Technology, Danvers, Mass.) in 1% BSA PBS overnight at 4° C.
The cells were washed with PBS-Tween (3×200 μL) and incubated with the secondary antibody (100 μL; HRP-conjugated anti-rabbit IgG, Dako Ltd., Glostrup, Denmark). The cells were then incubated with of substrate (50 μL) for 2-20 min, followed by the addition of stop solution (50 μL, 1N H2SO4). The ICAM-1 signal was detected by reading the absorbance at 450 nm against a reference wavelength of 655 nm using a spectrophotometer. The cells ware then washed with PBS-Tween (3×200 μL) and total cell numbers in each well were determined by reading absorbance at 595 nm after Crystal Violet staining (50 μL of a 2% solution in PBS) and elution by 1% SDS solution (100 μL) in PBS. The measured OD 450-655 readings were corrected for cell number by dividing with the OD595 reading in each well. The inhibition of ICAM-1 expression was calculated at each concentration of test compound by comparison with vehicle control.

[3] = target: T1, Syk (Homo sapiens, UniProt P43405); assay: Syk enzyme inhibition (Z-LYTE FRET); type: biochemical; conditions: Table 2A
T1 construct: purchased Life Technologies
Summary of the method: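 Enzyme (1000, 1400 or 2000 ng/mL stocks for c-Src, Hck, Syk respectively) preincubated 2 h at RT with compound (0.0012–40 μg/mL series), then FRET peptide plus ATP (800 μM c-Src; 60 μM Hck, Syk stocks) for 1 h. Protease development 1 h; phosphorylation from coumarin/fluorescein emission ratio.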

[4] = target: T2, c-Src (Homo sapiens, UniProt P12931); assay: c-Src enzyme inhibition (Z-LYTE FRET); type: biochemical; conditions: Table 2A
T2 construct: purchased Life Technologies
Procedure: The enzyme inhibitory activities of compounds disclosed herein were determined by FRET using synthetic peptides labelled with both donor and acceptor fluorophores (Z-LYTE, Life Technologies, Paisley, UK).
The relevant enzyme (1000 ng/mL, 1400 ng/mL or 2000 ng/mL respectively, 2.5 μL) was incubated with the test compound (either 40 μg/mL, 12 μg/mL, 4 μg/mL, 1.2 μg/mL, 0.4 μg/mL, 0.12 μg/mL, 0.04 μg/mL, 0.012 μg/mL, 0.004 μg/mL or 0.0012 μg/mL, 2.5 μL each) for 2 h at RT. The FRET peptides (8 μM, 2.5 μL), and appropriate ATP solutions (2.5 μL, 800 μM for c-Src, and 60 μM ATP for HCK and Syk) were then added to the enzyme/compound mixtures and incubated for 1 h at RT. Development reagent (protease, 5 μL) was added for 1 h prior to detection in a fluorescence microplate reader (EnVision, Perkin Elmer).
In all cases, the site-specific protease cleaves non-phosphorylated peptide only and eliminates the FRET signal. Phosphorylation levels of each reaction were calculated using the ratio of coumarin emission (donor) over fluorescein emission (acceptor), for which low ratios indicate high phosphorylation and high ratios indicate low phosphorylation levels.

T2 sequence (P12931 whole entry): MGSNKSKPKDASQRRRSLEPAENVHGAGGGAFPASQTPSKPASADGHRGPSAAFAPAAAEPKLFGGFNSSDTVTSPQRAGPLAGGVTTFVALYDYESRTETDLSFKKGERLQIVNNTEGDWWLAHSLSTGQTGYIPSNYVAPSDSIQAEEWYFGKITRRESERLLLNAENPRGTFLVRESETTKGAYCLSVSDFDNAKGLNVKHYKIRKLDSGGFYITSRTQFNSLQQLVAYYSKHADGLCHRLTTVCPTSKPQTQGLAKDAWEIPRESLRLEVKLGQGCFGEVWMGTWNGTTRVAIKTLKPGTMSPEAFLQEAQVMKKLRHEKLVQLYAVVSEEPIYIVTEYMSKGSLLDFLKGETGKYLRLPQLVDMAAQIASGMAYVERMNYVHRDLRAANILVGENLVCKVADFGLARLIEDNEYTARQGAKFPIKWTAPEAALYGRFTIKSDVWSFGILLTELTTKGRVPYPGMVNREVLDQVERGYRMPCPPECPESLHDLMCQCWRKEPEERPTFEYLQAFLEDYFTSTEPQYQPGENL

Row | SMILES | IC50 [3] | IC50 [4] | MTT Assay Cell viability at time point indicated in d-U937 Cells, 4 h [1] | MTT Assay Cell viability at time point indicated in d-U937 Cells, 24 h [1] | IC50 [2]
1 | CC(=O)NCc1cnc(Nc2cc(COc3ccc(NC(=O)Nc4cc(C(C)(C)C)nn4-c4ccc(C)cc4)c4ccccc34)ccn2)cn1 [Example 6, N-((5-((4-(((4-(3-(3-(tert-butyl)-1-(p-tolyl)-1H-pyrazol-5-yl)ureido)naphthalen-1-yl)oxy)methyl)pyridin-2-yl)amino)pyrazin-2-yl)methyl)acetamide] | 7520 nM | 24 nM | − (−ve and +ve indicate the value is below and above, respectively, the no significant effect threshold defined as 30% inhibition at 10 μg/mL at the time point indicated) | − (−ve and +ve indicate the value is below and above, respectively, the no significant effect threshold defined as 30% inhibition at 10 μg/mL at the time point indicated) | 52.4 nM
2 | Cc1ccc(-n2nc(C(C)(C)C)cc2NC(=O)Nc2ccc(OCc3ccnc(Nc4cncc(CO)n4)c3)c3ccccc23)cc1 [Example 21] | > 15900 nM | 33 nM | − (−ve and +ve indicate the value is below and above, respectively, the no significant effect threshold defined as 30% inhibition at 10 μg/mL at the time point indicated) | − (−ve and +ve indicate the value is below and above, respectively, the no significant effect threshold defined as 30% inhibition at 10 μg/mL at the time point indicated) | 76.5 nM
3 | CC(C)(C)c1cc(NC(=O)Nc2ccc(OCc3ccnc(Nc4cncc(C5CC5)n4)c3)c3ccccc23)n(-c2ccc(O)cc2)n1 [Example 34] | 4260 nM | 18 nM | − (−ve and +ve indicate the value is below and above, respectively, the no significant effect threshold defined as 30% inhibition at 10 μg/mL at the time point indicated) | − (−ve and +ve indicate the value is below and above, respectively, the no significant effect threshold defined as 30% inhibition at 10 μg/mL at the time point indicated) | 41.1 nM
4 | Cc1ccc(-n2nc(C(C)(C)C)cc2NC(=O)Nc2ccc(OCc3ccnc(Nc4cncc(C5CC5)n4)c3)c3ccccc23)s1 [Example 24] | 8830 nM | 42 nM | − (−ve and +ve indicate the value is below and above, respectively, the no significant effect threshold defined as 30% inhibition at 10 μg/mL at the time point indicated) | − (−ve and +ve indicate the value is below and above, respectively, the no significant effect threshold defined as 30% inhibition at 10 μg/mL at the time point indicated) | 55.1 nM
5 | Cc1ccc(-n2nc(C(C)(C)C)cc2NC(=O)Nc2ccc(OCc3ccnc(Nc4cnc(C(=O)N(C)C)cn4)c3)c3ccccc23)cc1 [Example 9, 5-((4-(((4-(3-(3-(tert-Butyl)-1-(p-tolyl)-1H-pyrazol-5-yl)ureido)naphthalen-1-yl)oxy)methyl)pyridin-2-yl)amino)-N,N-dimethylpyrazine-2-carboxamide] | > 14900 nM | 2510 nM | − (−ve and +ve indicate the value is below and above, respectively, the no significant effect threshold defined as 30% inhibition at 10 μg/mL at the time point indicated) | − (−ve and +ve indicate the value is below and above, respectively, the no significant effect threshold defined as 30% inhibition at 10 μg/mL at the time point indicated) | 72.5 nM
6 | Cc1ccc(-n2nc(C(C)(C)C)cc2NC(=O)Nc2ccc(OCc3ccnc(Nc4cnc(C)c(C)n4)c3)c3ccccc23)cc1 [Example 4, 1-(3-(tert-Butyl)-1-(p-tolyl)-1H-pyrazol-5-yl)-3-(4-((2-((5,6-dimethylpyrazin-2-yl)amino)pyridin-4-yl)methoxy)naphthalen-1-yl)urea] | > 16000 nM | 447 nM | − (−ve and +ve indicate the value is below and above, respectively, the no significant effect threshold defined as 30% inhibition at 10 μg/mL at the time point indicated) | − (−ve and +ve indicate the value is below and above, respectively, the no significant effect threshold defined as 30% inhibition at 10 μg/mL at the time point indicated) | > 1600 nM
7 | COCCNC(=O)c1cnc(Nc2cc(COc3ccc(NC(=O)Nc4cc(C(C)(C)C)nn4-c4ccc(C)s4)c4ccccc34)ccn2)cn1 [Example 43] | > 14200 nM | 73 nM | − (−ve and +ve indicate the value is below and above, respectively, the no significant effect threshold defined as 30% inhibition at 10 μg/mL at the time point indicated) | − (−ve and +ve indicate the value is below and above, respectively, the no significant effect threshold defined as 30% inhibition at 10 μg/mL at the time point indicated) | > 1420 nM

Continued, in another order:

Row | IC50 [3] | IC50 [4] | SMILES | MTT Assay Cell viability at time point indicated in d-U937 Cells, 4 h [1] | MTT Assay Cell viability at time point indicated in d-U937 Cells, 24 h [1] | IC50 [2]
8 | > 16300 nM | 150 nM | Cc1ccc(-n2nc(C(C)(C)C)cc2NC(=O)Nc2ccc(OCc3ccnc(Nc4cncc(C)n4)c3)c3ccccc23)cc1 [Example 20] | − (−ve and +ve indicate the value is below and above, respectively, the no significant effect threshold defined as 30% inhibition at 10 μg/mL at the time point indicated) | − (−ve and +ve indicate the value is below and above, respectively, the no significant effect threshold defined as 30% inhibition at 10 μg/mL at the time point indicated) | 152 nM
9 | 6700 nM | 385 nM | COc1ccc(-n2nc(C(C)(C)C)cc2NC(=O)Nc2ccc(OCc3ccnc(Nc4cnccn4)c3)c3ccccc23)cc1Cl [Example 46] | − (−ve and +ve indicate the value is below and above, respectively, the no significant effect threshold defined as 30% inhibition at 10 μg/mL at the time point indicated) | − (−ve and +ve indicate the value is below and above, respectively, the no significant effect threshold defined as 30% inhibition at 10 μg/mL at the time point indicated) | 212 nM
10 | > 16200 nM | 105 nM | COc1ccc(-n2nc(C(C)(C)C)cc2NC(=O)Nc2ccc(OCc3ccnc(Nc4cnccn4)c3)c3ccccc23)cn1 [Example 12] | − (−ve and +ve indicate the value is below and above, respectively, the no significant effect threshold defined as 30% inhibition at 10 μg/mL at the time point indicated) | − (−ve and +ve indicate the value is below and above, respectively, the no significant effect threshold defined as 30% inhibition at 10 μg/mL at the time point indicated) | 242 nM
11 | 6700 nM | 27 nM | COc1ccc(-n2nc(C(C)(C)C)cc2NC(=O)Nc2ccc(OCc3ccnc(Nc4cncc(C5CC5)n4)c3)c3ccccc23)cc1 [Example 22] | − (−ve and +ve indicate the value is below and above, respectively, the no significant effect threshold defined as 30% inhibition at 10 μg/mL at the time point indicated) | − (−ve and +ve indicate the value is below and above, respectively, the no significant effect threshold defined as 30% inhibition at 10 μg/mL at the time point indicated) | 19.6 nM
